Legend:
Test in all cases: relative viability (nuclei count vs DMSO), 5 days (fraction); higher = more cells survive
RO-3306 + AZD7762 = compound: C1=CC2=C(C=CC(=C2)C=C3C(=O)NC(=NCC4=CC=CS4)S3)N=C1 [RO-3306] + NC(=O)Nc1cc(-c2cccc(F)c2)sc1C(=O)N[C@H]1CCCNC1 [AZD7762] (partner 0.2 µM)
Outline: (§1)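 Relative viability is defined as nuclei in treated wells over nuclei in vehicle wells. Duplicate plates were run and medians reported. Lung cancer cell lines in 1536-well plates were dosed by pin tool one day after seeding, with one drug or with a fixed anchor-drug dose plus five library-drug doses (not always all listed) in √10 steps, and nuclei were counted after 5 days.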

RO-3306 + Pemetrexed = compound: C1=CC2=C(C=CC(=C2)C=C3C(=O)NC(=NCC4=CC=CS4)S3)N=C1 [RO-3306] + Nc1nc2[nH]cc(CCc3ccc(C(=O)N[C@@H](CCC(=O)O)C(=O)O)cc3)c2c(=O)[nH]1 [Pemetrexed] (partner 0.2 µM)
Outline: as §1

[1] = compound: O=S(=O)(c1ccccc1)N(CC(F)(F)F)c1ccc(C(O)(C(F)(F)F)C(F)(F)F)cc1 + COc1cc2c(Oc3ccc(NC(=O)C4(C(=O)Nc5ccc(F)cc5)CC4)cc3F)ccnc2cc1OCCCN1CCOCC1 [Foretinib] (partner 0.25 µM)
Outline: as §1

[2] = compound: O=S(=O)(c1ccccc1)N(CC(F)(F)F)c1ccc(C(O)(C(F)(F)F)C(F)(F)F)cc1 + C[C@]1(O)C[C@@H](c2nc(-c3ccc4ccc(-c5ccccc5)nc4c3)c3c(N)nccn32)C1 [Linsitinib] (partner 1 µM)
Outline: as §1

Row | Cell Line | relative viability (RO-3306 + AZD7762; first compound 0.01 µM) | relative viability (RO-3306 + AZD7762; first compound 0.1 µM) | relative viability (RO-3306 + AZD7762; first compound 0.3162 µM) | relative viability (RO-3306 + AZD7762; first compound 1 µM) | relative viability (RO-3306 + Pemetrexed; first compound 0.01 µM) | relative viability (RO-3306 + Pemetrexed; first compound 0.1 µM) | relative viability (RO-3306 + Pemetrexed; first compound 0.3162 µM) | relative viability (RO-3306 + Pemetrexed; first compound 1 µM) | relative viability ([1]; first compound 0.8 µM) | relative viability ([1]; first compound 2.53 µM) | relative viability ([1]; first compound 8 µM) | relative viability ([2]; first compound 0.8 µM) | relative viability ([2]; first compound 2.53 µM) | relative viability ([2]; first compound 8 µM) | relative viability (RO-3306 + AZD7762; first compound 0.03162 µM) | relative viability (RO-3306 + Pemetrexed; first compound 0.03162 µM)
1 | NCI-H23 | 0.249 | 0.21 | 0.303 | 0.227 | 0.695 | 0.723 | 0.591 | 0.617 | 1.02 | 1.16 | 1 | 0.627 | 0.571 | 0.605 |  | 
2 | NCI-H2405 | 0.828 | 0.717 | 0.718 | 0.578 | 0.913 | 1.01 | 0.971 | 0.907 | 1.14 | 1.05 | 0.979 | 1.05 | 0.913 | 0.983 | 0.608 | 1.02
3 | HARA | 0.443 | 0.237 | 0.297 | 0.421 | 0.242 | 0.227 | 0.24 | 0.288 | 0.845 | 0.782 | 0.849 | 0.901 | 0.847 | 0.776 |  | 
4 | HCC-44 | 1.04 | 1.01 | 1 | 1.01 | 0.712 | 0.651 | 0.622 | 0.744 |  |  |  | 0.717 | 0.705 | 0.658 | 1.1 | 0.643
5 | CAL-12T | 0.718 | 0.575 | 0.658 | 0.747 | 1.38 | 1.17 | 1.15 | 1.26 | 1.06 | 0.962 | 0.936 | 0.719 | 0.499 | 0.542 | 0.565 | 1.35
6 | NCI-H838 | 1.03 | 0.975 | 0.972 | 0.931 | 0.256 | 0.252 | 0.251 | 0.282 | 1.15 | 1.05 | 1.02 | 1.13 | 1.04 | 0.97 | 0.908 | 0.252
7 | LK-2 | 0.459 | 0.425 | 0.448 | 0.472 | 0.266 | 0.264 | 0.275 | 0.288 | 1.21 | 1.16 | 0.835 | 0.643 | 0.553 | 0.301 | 0.354 | 0.293
8 | NCI-H358 | 0.486 | 0.49 | 0.52 | 0.578 | 0.192 | 0.177 | 0.189 | 0.174 | 0.592 | 0.557 | 0.45 | 0.598 | 0.521 | 0.578 | 0.493 | 0.154
9 | SW 1573 |  |  |  |  | 0.893 | 0.697 | 0.9 | 0.67 | 0.954 | 0.898 | 1.04 | 0.829 | 0.762 | 0.624 |  | 0.744
10 | LCLC-103H | 0.732 | 0.795 | 0.819 | 0.725 | 0.474 | 0.448 | 0.457 | 0.464 | 0.973 | 0.758 | 0.81 | 1.06 | 1.17 | 0.936 | 0.695 | 0.461
11 | HCC-827 | 0.234 | 0.216 | 0.197 | 0.196 | 0.265 | 0.27 | 0.254 | 0.277 | 1.04 | 1.02 | 0.922 | 1.03 | 0.954 | 0.938 | 0.18 | 0.26
12 | NCI-H1666 | 0.787 | 0.858 | 0.88 | 0.799 | 0.94 | 0.819 | 0.836 | 0.868 | 0.936 | 0.863 | 0.863 | 0.788 | 0.703 | 0.78 | 0.878 | 0.798
13 | NCI-H460 | 0.797 | 0.682 | 0.737 | 0.785 | 0.0602 | 0.0671 | 0.0618 | 0.0563 | 1.14 | 0.889 | 0.778 | 1.55 | 0.829 | 0.695 | 0.675 | 0.0669
14 | NCI-H2087 | 1.42 | 1.35 | 1.42 | 1.34 | 0.678 | 0.636 | 0.652 | 0.648 | 1.15 | 0.909 | 0.971 | 0.921 | 0.95 | 0.961 | 1.03 | 0.677
15 | NCI-H2085 | 1.04 | 0.93 | 0.921 | 1.07 | 0.958 | 0.803 | 0.907 | 0.962 | 0.886 | 0.725 | 0.885 | 1.07 | 0.888 | 0.844 | 0.95 | 0.859
16 | NCI-H1299 |  |  |  |  |  |  |  |  | 1.1 | 1.07 | 1 | 1.11 | 0.954 | 0.782 |  | 
17 | ChaGo-K-1 | 1.08 | 0.84 | 0.945 | 0.769 | 0.319 | 0.331 | 0.259 | 0.249 | 1.04 | 0.84 | 0.818 |  |  |  | 0.694 | 0.266
18 | A-427 | 0.821 | 0.685 | 0.744 | 0.832 | 0.942 | 0.966 | 0.937 | 0.607 | 1.1 | 0.967 | 1.09 | 1.04 | 1.03 | 1.12 | 0.766 | 0.902
19 | NCI-H2170 | 1.11 | 0.938 | 0.939 | 0.907 | 0.314 | 0.241 | 0.251 | 0.271 | 1.02 | 0.88 | 0.837 |  |  |  | 0.865 | 0.311
20 | NCI-H441 | 1.02 | 1.21 | 0.948 | 1.03 | 0.266 | 0.228 | 0.235 | 0.23 | 0.916 | 0.927 | 0.952 | 0.559 | 0.504 | 0.49 | 0.782 | 0.276
21 | NCI-H2347 | 1.13 | 0.796 | 0.766 | 0.724 | 0.44 | 0.428 | 0.433 | 0.437 | 1.2 | 0.996 | 0.683 | 1.1 | 1.01 | 0.825 | 0.663 | 0.37

Reference: the supplement of paper PMC10307832
